Experimental data as given in PubChem BioAssay (NCI).
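Protocol summary: plate cells (96-well), add compound at 5 concentrations, incubate 48 h, interpolate endpoints linearly. Abbreviation: GI50, concentration required for 50% inhibition of growth. TGI denotes the concentration required for complete inhibition of growth.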

Legend:
Assay in all cases: NCI tumour cell line growth inhibition, 48 h
DLD-1 colon = test system: DLD-1 colon
KM20L2 colon = test system: KM20L2 colon
MDA-MB-435 = test system: MDA-MB-435
DU-145 prostate = test system: DU-145 prostate
MDA-N = test system: MDA-N

O=C(Cc1c(C(=O)Nc2ccccc2)sc(C(=O)Nc2ccccc2)c1CC(=O)Nc1ccccc1)Nc1ccccc1
TGI (DLD-1 colon): > 100 µM
TGI (KM20L2 colon): > 100 µM

Cc1cc(S(=O)(=O)Nc2n[nH]c(-c3ccc(Cl)cc3)c2C#N)c(S)cc1Cl
GI50 (MDA-MB-435): > 100 µM
TGI (MDA-MB-435): > 100 µM
GI50 (DU-145 prostate): > 100 µM
TGI (DU-145 prostate): > 100 µM

COC1OC(CO)C(O)C(NC(=O)N(C)N=O)C1O (stereo unspecified)
TGI (DLD-1 colon): > 100 µM
TGI (KM20L2 colon): > 100 µM

Cc1cc(C)c2c(=O)cc(-c3ccc(F)cc3)[nH]c2n1
GI50 (MDA-MB-435): 18.6 µM
TGI (MDA-MB-435): 40.6 µM
TGI (DU-145 prostate): > 100 µM
GI50 (MDA-N): 25 µM
TGI (MDA-N): 67.9 µM

Cc1ccc(NC(=O)CC2SC(=Nc3cccc(Cl)c3C)NC2=O)cc1 (stereo unspecified)
TGI (DLD-1 colon): > 100 µM
TGI (KM20L2 colon): > 100 µM

CCCC(c1cc(C(C)(C)C)c(O)cc1C)c1cc(C(C)(C)C)c(O)cc1C
TGI (MDA-MB-435): 7.18 µM
TGI (DU-145 prostate): 14.7 µM
TGI (MDA-N): 3.91 µM

Cc1cc2c(=O)cc(-c3ccc(Cl)cc3Cl)oc2c(C(=O)O)c1C
TGI (DLD-1 colon): > 100 µM
TGI (KM20L2 colon): > 100 µM

COC(=O)c1oc([N+](=O)[O-])c(-c2ccccc2)c1-c1ccccc1
TGI (DLD-1 colon): > 100 µM
TGI (KM20L2 colon): > 100 µM

Oc1c(CCl)cc(Cl)cc1Cc1cc(Cl)cc(Cc2cc(Cl)cc(CCl)c2O)c1O
GI50 (MDA-MB-435): 3.89 µM
TGI (MDA-MB-435): 21.4 µM
GI50 (DU-145 prostate): 4.28 µM
TGI (DU-145 prostate): 37.1 µM

Cc1cc2c(cc1C)[n+](=O)c(C(=O)CC(=O)C(=O)Nc1ccccc1C)c(C)n2[O-]
TGI (KM20L2 colon): > 100 µM

COc1cc2c3c(n(CCCNC(C)(C)CO)c(=O)c2cc1OC)-c1cc2c(cc1C3=O)OCO2
GI50 (MDA-MB-435): 4.52 µM
TGI (MDA-MB-435): > 75.5 µM
GI50 (DU-145 prostate): 0.819 µM
TGI (DU-145 prostate): 16.3 µM

CSc1nc(SC)c2cnn(-c3ccnc4cc(Cl)ccc34)c2n1
GI50 (MDA-MB-435): 10.7 µM
TGI (MDA-MB-435): > 100 µM
GI50 (DU-145 prostate): 42.6 µM
TGI (DU-145 prostate): > 67 µM

CCOC(=O)c1sc(Nc2cc(Cl)ccc2Cl)nc1C
TGI (DLD-1 colon): > 100 µM
TGI (KM20L2 colon): > 100 µM

C#CCOCCCC(=O)O
TGI (DU-145 prostate): > 100 µM
TGI (MDA-N): > 100 µM

CC(=O)OC1C(COC(N)=O)OC(n2c(-c3ccc(C)cc3)cc(-c3ccccc3)c(C#N)c2=O)C(OC(C)=O)C1OC(C)=O (stereo unspecified)
TGI (DLD-1 colon): > 100 µM
TGI (KM20L2 colon): > 100 µM

CCN1C2=C(SC(=S)C1=C1SC(C(=O)c3ccccc3)=C(C(=O)c3ccccc3)S1)SC(=Nc1ccccc1)C2=O
GI50 (MDA-MB-435): 9.41 µM
TGI (MDA-MB-435): > 100 µM
GI50 (DU-145 prostate): 24.6 µM
TGI (DU-145 prostate): > 100 µM

CC(C)c1ccc2c(c1)CCC1C(C)(CN)CCCC21C (stereo unspecified)
TGI (MDA-MB-435): 2.89 µM
TGI (DU-145 prostate): 3.33 µM
TGI (MDA-N): 2.86 µM

O=C(NCCCNc1cc(-c2cn(-c3ccccc3)nc2-c2cccc(O)c2)ccn1)c1ccc(F)cc1
GI50 (MDA-MB-435): 1.74 µM
TGI (MDA-MB-435): 4.44 µM
GI50 (DU-145 prostate): 4.63 µM
TGI (DU-145 prostate): 53.4 µM

CC(=O)N[C@@H](Cc1ccc(OP(=O)(O)O)cc1)C(=O)N[C@H]1CCC(=O)N2CCC[C@@H](C(=O)NCc3cccc4ccccc34)N2C1=O
GI50 (MDA-MB-435): > 25 µM
TGI (MDA-MB-435): > 25 µM
GI50 (DU-145 prostate): > 25 µM
TGI (DU-145 prostate): > 25 µM
